Common to all, as to assay: NCI anticancer screen, dose series, 48 h
The test system of assay [1] is SF-295 CNS.
The subject of assay [2] is HOP-62 NSCLC.
Assay [3] concerns NCI-H226 lung.
The test system of assay [4] is SN12C renal.
The test system of assay [5] is OVCAR-5 ovarian.
Assay [6] relates to IGROV1 ovarian.
The subject of assay [7] is MCF7 breast.
In assay [8] the test system is UO-31 renal.
Assay [9] deals with ACHN renal.
In assay [10] the test system is DU-145 prostate.

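Each compound was tested at five concentrations against cells in 96-well plates for 48 hours. GI50 = concentration required for 50% inhibition of growth. TGI marks complete inhibition of growth.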

Turning to `N#CC1(C2SCCS2=O)C2=C(C(=O)c3ccccc3C2=O)N2CCCC21` (configuration not stated), the TGI in assay [1] came out at 7.82 µM; in [2] it was 14.9 µM; in [3], 10.7 µM; in [4], 6.71 µM; in [5], 9.39 µM; in assay [6], 5.76 µM. The TGI stood at 3.73 µM in assay [7], 14.2 µM in assay [8], 16.2 µM in assay [9] and 4.93 µM in [10].

`COc1ccc(/C=c2/sc3n(c2=O)C(c2ccc(OC)c(OC)c2)C2=C(N=3)c3cc(F)ccc3OC2)cc1` (configuration not stated): the GI50 in [1] is 15.7 µM; in [2] it was 37.7 µM; in assay [3], 9.17 µM; in assay [4], 3.45 µM; in [5], 52.8 µM; in assay [6], 9.71 µM. For the same compound, the GI50 was 23.6 µM in [7], 27.6 µM in assay [8], 19.3 µM in assay [9] and 43.3 µM in [10]. In addition, the TGI in [1] was 54.1 µM; in [2], > 100 µM; in assay [3], > 60.2 µM; in assay [4], > 54.9 µM; in assay [5] it was > 100 µM; in [6], > 26.5 µM. The TGI was > 100 µM in assay [7], > 77.7 µM in assay [8], 65.7 µM in assay [9] and > 100 µM in assay [10].

With `CC(C)c1ccccc1S(=O)c1ccccc1C(C)(C)O` (configuration not stated), the TGI in [1] was 48.1 µM; in assay [2], 48.7 µM; in assay [3], 41.8 µM; in assay [4], > 100 µM; in [5], > 100 µM; in assay [6], > 100 µM. The TGI in assay [7], in assay [9] and in assay [10] was > 100 µM each time.

For the compound `O=C(Nc1ccc(Cl)cc1F)c1cc(Br)ccc1O`, the GI50 was 1.65 µM in assay [1]; 1.25 µM in assay [2]; 1.16 µM in assay [3]; 0.788 µM in assay [4]; 3.71 µM in assay [5]; 0.642 µM in [6]. Besides, the GI50 in assay [7] was 1.26 µM; in assay [8] it was 0.461 µM; in assay [9] it was 1.12 µM; in [10], 1.89 µM. For the same compound, the TGI is 3.51 µM in assay [1]; 7.96 µM in assay [2]; 4.11 µM in [3]; 8.58 µM in [4]; > 100 µM in [5]; > 100 µM in [6]. For the same compound, the TGI is > 100 µM in assay [7], 3.65 µM in assay [8], 16.7 µM in [9] and > 100 µM in assay [10].

In the case of `COc1ccc(CNc2c3ccccc3nc3ccccc23)cc1OC`, the GI50 was 2.19 µM in assay [1]; 2.96 µM in assay [2]; 2.25 µM in [3]; 2.36 µM in assay [4]; 2.56 µM in assay [5]; 2.3 µM in assay [6]. The GI50 is 2.24 µM in assay [7], 1.17 µM in assay [8], 1.39 µM in assay [9] and 2.8 µM in assay [10]. The TGI is 7.2 µM in [1]; 13.3 µM in assay [2]; 7.04 µM in assay [3]; 8.54 µM in assay [4]; 11 µM in assay [5]; 6.55 µM in assay [6]. For the same compound, the TGI in [7] is 6.66 µM; in [8] it was 5.05 µM; in [9], 7.94 µM; in [10] it was 8.43 µM.

With `O=C(O)c1cc(O)c2c(c1)C(C1c3cc(C(=O)O)cc(O)c3C(=O)c3c(OC4OC(CO)C(O)C(O)C4O)cccc31)c1cccc(OC3OC(CO)C(O)C(O)C3O)c1C2=O` (configuration not stated), the GI50 in assay [1], in [2], in [3], in [4], in [5] and in assay [6] was > 100 µM in each case. Also, the GI50 in [7], in assay [8], in assay [9] and in assay [10] was > 100 µM in each case. Moreover, the TGI in assay [1], in assay [2], in assay [3], in assay [4], in assay [5] and in assay [6] was > 100 µM each time. Also, the TGI in assay [7], in [8], in assay [9] and in assay [10] was > 100 µM each time.

For `O=C(O)c1cccc(OCCO)c1`, the TGI in assay [1], in assay [2], in assay [3], in [4], in [5] and in [6] was > 100 µM each time. The TGI in assay [7], in assay [8], in [9] and in assay [10] was > 100 µM in each case.

As for `CC(=O)Oc1ccccc1C(=O)N=C1[Se]CCCN1C(=O)c1ccccc1OC(C)=O`, the GI50 in assay [2] is 1.61 µM; in assay [3] it was 2.01 µM; in [4] it was 4.12 µM; in [5] it was 3.25 µM; in assay [6], 2.83 µM; in assay [7], 2.79 µM. Besides, the values for the GI50 in [8], in [9] and in assay [10] were 1.33 µM, 2.3 µM and 1.82 µM, respectively. The TGI in assay [2] was 3.01 µM; in [3], 4.74 µM; in [4], 24.7 µM; in assay [5] it was 8.66 µM; in assay [6] it was 11.6 µM; in assay [7] it was 10.8 µM. The results for the TGI in assay [8], in assay [9] and in assay [10] were 4.25 µM, 4.79 µM and 3.26 µM, respectively.

For the compound `O=C(O)Cc1c(O)ccc2ccccc12`, the TGI in assay [1], in assay [2], in assay [3], in assay [4], in [5] and in [6] was > 100 µM throughout. Moreover, the TGI in assay [7], in assay [9] and in assay [10] was > 100 µM in each case.

Regarding `OCCCCC#Cc1ccccc1C#Cc1cccc(O)c1`, the GI50 in assay [1] is 21 µM; in [3], 22 µM; in assay [4], 17.9 µM; in assay [5] it was 16.9 µM; in [6], 16.8 µM; in assay [7] it was 35.7 µM. Besides, the GI50 in [8] was 15.9 µM; in assay [9] it was 19.1 µM; in [10] it was 17.4 µM. Moreover, the TGI in assay [1] was 41.7 µM; in assay [3], 47.3 µM; in [4], 40 µM; in [5] it was 32.1 µM; in assay [6], 33.3 µM; in assay [7], > 100 µM. The TGI in assay [8] is 32.5 µM; in [9], 41.6 µM; in assay [10], 40.9 µM.

As for `O=C(CCCN1CC=C(n2c(=O)[nH]c3ccccc32)CC1)c1ccc(F)cc1`, the GI50 was 57.6 µM in assay [2]; 25.5 µM in assay [3]; 96.2 µM in [4]; 94.1 µM in assay [5]; > 100 µM in assay [6]; 31.1 µM in [7]. Also, the results for the GI50 in assay [8], in assay [9] and in [10] were 27.5 µM, 45.6 µM and 68.1 µM, respectively. Also, the TGI in assay [2], in assay [3], in [4], in assay [5], in [6] and in assay [7] was > 100 µM each time. In addition, the TGI in assay [8], in assay [9] and in assay [10] was > 100 µM each time.

On to `Cc1[nH][nH]c(=O)c1C=Nc1ccc(-c2nc3ccccc3[nH]2)cc1`, for which the GI50 in assay [1] was 18.4 µM; in [3] it was 33.7 µM; in assay [4], 36.7 µM; in assay [5] it was 46 µM; in [6] it was 24.6 µM; in assay [8] it was 31.8 µM. The values for the GI50 in assay [9] and in [10] were 30.1 µM and 34.8 µM, respectively. The TGI is 42.3 µM in [1]; > 100 µM in [3]; 96.5 µM in [4]; > 100 µM in assay [5]; > 100 µM in assay [6]; 0.612 µM in assay [7]. The TGI in assay [8], in assay [9] and in assay [10] was > 100 µM throughout.

With `COc1cc2cn3c4ccc(O)cc4[nH]c(=O)c3c2cc1OC`, the GI50 is 0.0338 µM in assay [2]; 0.0374 µM in assay [3]; 0.0435 µM in assay [4]; 0.269 µM in assay [5]; 0.0341 µM in assay [7]; 0.0398 µM in assay [8]. The GI50 is 0.0361 µM in [9] and 0.0229 µM in [10]. Also, the TGI in assay [2] amounted to 1.81 µM; in assay [3] it was 16.8 µM; in assay [4], 1.98 µM; in [5] it was 2.36 µM; in assay [7] it was 1.62 µM; in assay [8] it was 1.64 µM. The figures for the TGI in assay [9] and in assay [10] were 1.61 µM and 1.25 µM, respectively.

Take `COc1ccc(-c2cc(-c3cccn3C)c(C#N)c(N)n2)cc1OC`: the GI50 in [1] was > 100 µM; in assay [3], > 100 µM; in assay [4], 66.9 µM; in assay [5] it was > 100 µM; in assay [6], 96 µM; in assay [7], 94.3 µM. Moreover, the GI50 in [8] is 98.3 µM; in assay [9], > 100 µM; in assay [10], 91.6 µM. Besides, the TGI in [1], in assay [3], in assay [4], in assay [5], in [6] and in [7] was > 100 µM in each case. The TGI in assay [8], in assay [9] and in assay [10] was > 100 µM throughout.

Regarding `CCN(CC)CC(C)(C)C(=O)/C=C/c1ccc(Cl)c(Cl)c1`, the GI50 in assay [1] is 1.74 µM; in [2], 1.75 µM; in [3], 1.71 µM; in [5], 1.65 µM; in assay [6] it was 2.01 µM; in assay [7] it was 0.959 µM. The values for the GI50 in [8], in assay [9] and in assay [10] were 1.32 µM, 1.61 µM and 1.41 µM, respectively. Also, the TGI in [1] was found to be 3.22 µM; in assay [2] it was 3.29 µM; in [3] it was 3.35 µM; in assay [5], 3.49 µM; in assay [6] it was 4.95 µM; in [7] it was 2.8 µM. Also, the TGI in [8] is 2.72 µM; in assay [9] it was 3.09 µM; in assay [10] it was 2.71 µM.

Turning to `C#C[C@]1(O)CC[C@H]2[C@@H]3CC=C4c5sc(Nc6ccccc6)nc5CC[C@]4(C)[C@H]3CC[C@@]21C`, the GI50 in assay [1] was 0.244 µM; in [2] it was 2.19 µM; in assay [3], 2.55 µM; in assay [4], 2.86 µM; in assay [5], 2.44 µM; in assay [6] it was 2.06 µM. Moreover, the GI50 in assay [7] was 1.57 µM; in assay [8], 1.43 µM; in assay [10], 1.87 µM. Moreover, the TGI in [1] stood at 0.649 µM; in assay [2], 10.7 µM; in assay [3], 7.59 µM; in assay [4], 11.1 µM; in [5], 9.68 µM; in assay [6] it was 5.5 µM. In addition, the TGI in assay [7] worked out at 4.28 µM; in [8] it was 2.91 µM; in assay [10] it was 4.71 µM.

Take `O=c1[nH]c2cc(Cl)ccc2n1C1CCN(CCCC(c2ccc(F)cc2)c2ccc(F)cc2)CC1`: the GI50 in assay [2] is 1.55 µM; in [3], 1.87 µM; in assay [4], 1.78 µM; in assay [5], 1.74 µM; in assay [6] it was 1.98 µM; in [7] it was 1.35 µM. Further, the GI50 in assay [8] is 1 µM; in [9], 1.54 µM; in assay [10], 1.82 µM. Also, the TGI came to 3.05 µM in assay [2]; 3.53 µM in assay [3]; 3.27 µM in assay [4]; 3.43 µM in assay [5]; 3.87 µM in assay [6]; 2.84 µM in assay [7]. For the same compound, the TGI in assay [8] was found to be 2.38 µM; in [9], 2.87 µM; in [10], 3.32 µM.

For the origin of these results see PubChem BioAssay (NCI).
